Data reported in ChEMBL document CHEMBL1122992, “Phosphorus-nitrogen compounds. 26. Phosphaminimides. 2. 2,2'-Phosphinylidenebis(1,1,1-trimethylhydrazinium) iodide inner salts as agents affecting ganglionic transmission” (J Med Chem, 1985).

tested on: Rattus norvegicus; assay: LD50 values was measured by using probit analysis method in rats; type: ADME, organism-based; conditions: in vivo

Compound | LD50
C[N+](C)(C)N=P([O-])(N[N+](C)(C)C)Oc1ccccc1.[I-] (stereo unspecified) | ~ 15 ug ml-1
C[N+](C)(C)NP(=O)(N[N+](C)(C)C)Oc1ccccc1.[I-].[I-] | 2.37 µg/mL
C[N+](C)(C)N=P([O-])(N[N+](C)(C)C)c1ccccc1.[I-] (stereo unspecified) | ~ 15 ug ml-1
C[N+](C)(C)NP(=O)(N[N+](C)(C)C)c1ccccc1.[I-].[I-] | 2.15 µg/mL
C[N+](C)(C)[N-]P(=O)(N[N+](C)(C)C)c1ccccc1.[I-] (stereo unspecified) | ~ 15 ug ml-1
C[N+](C)(C)[N-]P(=O)(N[N+](C)(C)C)Oc1ccccc1.[I-] (stereo unspecified) | 15 µg/mL
